Columns and labels:
ROS1 = tested on: ROS1; set-up: method as in Gao et al. [42]; details: ref Gao et al. [42], cited from earlier work
MAPKAPK3 = tested on: MAPKAPK3; set-up: method as in Gao et al. [42]; details: ref Gao et al. [42], cited from earlier work
MAPK13 = tested on: MAPK13; set-up: method as in Gao et al. [42]; details: ref Gao et al. [42], cited from earlier work
CDC42BPA = tested on: CDC42BPA; set-up: method as in Gao et al. [42]; details: ref Gao et al. [42], cited from earlier work
LIMK1 = tested on: LIMK1; set-up: method as in Gao et al. [42]; details: ref Gao et al. [42], cited from earlier work
SRPK1 = tested on: SRPK1; set-up: method as in Gao et al. [42]; details: ref Gao et al. [42], cited from earlier work
RPS6KB1 [1] = biological target: T1, RPS6KB1 (Homo sapiens, UniProt P23443); test: ADP-Glo Kinase Assay, tivozanib off-target testing; type: biochemical; details: read-out: Experimental validation pIC50 (converted)
T1 construct: purchased SignalChem R21-10H-10
Protocol: The kinase inhibitors were dissolved to 1X Kinase Buffer with 5% DMSO by transferring 200nL of the buffer using ECHO525 Liquid handler (Labcyte). […] The dissolved kinases and 2.5X kinase buffer controls were transferred at 400nL using ECHO525. […] The 2.5X ATP/substrate working stocks were transferred at 400nL using ECHO525.
For the ADP detection, 1 μl ADP-Glo reagent was dispensed (Thermo Scientific Multidrop Combi nL). […] Next, 2 μl kinase detection reagent was dispensed with Thermo Scientific Multidrop Combi nL.
Kinase assay, kinase dilution and substrate buffers were as indicated by the manufacturer (Promega). The assays were performed in the same way as with the kinases from the Kinase Selectivity Profiling System + ADP-Glo Assay kits (see previous section). All the assays were done in three individual experiments, each having three replicates.
IC50 values from all the experiments were obtained with GraphPad Prism 7 (GraphPad Software, Inc. California, USA) using inhibitor vs. response—variable slope (four parameters) analysis. […] X-axis scale was set to log10.

CHK1 = tested on: CHK1; set-up: method as in Gao et al. [42]; details: ref Gao et al. [42], cited from earlier work
BRK = BRK (Homo sapiens, UniProt Q13882); set-up: method as in Gao et al. [42]; details: ref Gao et al. [42], cited from earlier work
EEF2K = tested on: EEF2K; set-up: method as in Gao et al. [42]; details: ref Gao et al. [42], cited from earlier work
IRAK1 = tested on: IRAK1; set-up: method as in Gao et al. [42]; details: ref Gao et al. [42], cited from earlier work
JAK2 = tested on: JAK2; set-up: method as in Gao et al. [42]; details: ref Gao et al. [42], cited from earlier work
RPS6KB1 [2] = biological target: T1, RPS6KB1; set-up: method as in Gao et al. [42]; details: ref Gao et al. [42], cited from earlier work
CHK2 = tested on: CHK2; set-up: method as in Gao et al. [42]; details: ref Gao et al. [42], cited from earlier work
FLT4 = FLT4 (Homo sapiens, UniProt P35916); set-up: method as in Gao et al. [42]; details: ref Gao et al. [42], cited from earlier work
PLK3 = tested on: PLK3; set-up: method as in Gao et al. [42]; details: ref Gao et al. [42], cited from earlier work
MAP4K2 = tested on: MAP4K2; set-up: method as in Gao et al. [42]; details: ref Gao et al. [42], cited from earlier work
CHUK = tested on: CHUK; set-up: method as in Gao et al. [42]; details: ref Gao et al. [42], cited from earlier work
FER = tested on: FER; set-up: method as in Gao et al. [42]; details: ref Gao et al. [42], cited from earlier work
AKT1 = tested on: AKT1; set-up: method as in Gao et al. [42]; details: ref Gao et al. [42], cited from earlier work
CDK2 = tested on: CDK2; set-up: method as in Gao et al. [42]; details: ref Gao et al. [42], cited from earlier work
PKCg = tested on: PKCg; set-up: method as in Gao et al. [42]; details: ref Gao et al. [42], cited from earlier work
TRKA = TRKA (Homo sapiens, UniProt P04629); set-up: method as in Gao et al. [42]; details: ref Gao et al. [42], cited from earlier work
CDK5/p25 = tested on: CDK5/p25; set-up: method as in Gao et al. [42]; details: ref Gao et al. [42], cited from earlier work
HIPK2 = tested on: HIPK2; set-up: method as in Gao et al. [42]; details: ref Gao et al. [42], cited from earlier work
PKCa = tested on: PKCa; set-up: method as in Gao et al. [42]; details: ref Gao et al. [42], cited from earlier work
MARK2 = tested on: MARK2; set-up: method as in Gao et al. [42]; details: ref Gao et al. [42], cited from earlier work
BTK = BTK (Homo sapiens, UniProt Q06187); set-up: method as in Gao et al. [42]; details: ref Gao et al. [42], cited from earlier work
MINK1 = tested on: MINK1; set-up: method as in Gao et al. [42]; details: ref Gao et al. [42], cited from earlier work
PKN2 = tested on: PKN2; set-up: method as in Gao et al. [42]; details: ref Gao et al. [42], cited from earlier work
MKNK2 (MNK2) = tested on: MKNK2 (MNK2); set-up: method as in Gao et al. [42]; details: ref Gao et al. [42], cited from earlier work
KIT = tested on: KIT; set-up: method as in Gao et al. [42]; details: ref Gao et al. [42], cited from earlier work
PLK1 = tested on: PLK1; set-up: method as in Gao et al. [42]; details: ref Gao et al. [42]; cited from earlier work

T1 sequence (P23443 whole entry): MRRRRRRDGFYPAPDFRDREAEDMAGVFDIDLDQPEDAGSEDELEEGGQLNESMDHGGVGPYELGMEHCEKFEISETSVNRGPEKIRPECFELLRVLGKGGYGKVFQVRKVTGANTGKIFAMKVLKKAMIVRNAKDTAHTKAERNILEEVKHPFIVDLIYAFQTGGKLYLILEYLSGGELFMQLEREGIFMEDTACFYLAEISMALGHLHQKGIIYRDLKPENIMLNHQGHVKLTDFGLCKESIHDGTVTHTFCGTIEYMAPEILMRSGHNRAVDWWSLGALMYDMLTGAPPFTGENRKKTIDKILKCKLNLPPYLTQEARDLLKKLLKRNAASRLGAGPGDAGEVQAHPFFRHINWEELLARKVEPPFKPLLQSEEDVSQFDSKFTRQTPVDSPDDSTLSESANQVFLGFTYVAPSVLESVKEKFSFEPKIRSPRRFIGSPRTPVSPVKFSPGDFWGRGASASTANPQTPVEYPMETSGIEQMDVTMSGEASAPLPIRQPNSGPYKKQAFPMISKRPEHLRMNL
Sequence of TRKA (P04629 33-796): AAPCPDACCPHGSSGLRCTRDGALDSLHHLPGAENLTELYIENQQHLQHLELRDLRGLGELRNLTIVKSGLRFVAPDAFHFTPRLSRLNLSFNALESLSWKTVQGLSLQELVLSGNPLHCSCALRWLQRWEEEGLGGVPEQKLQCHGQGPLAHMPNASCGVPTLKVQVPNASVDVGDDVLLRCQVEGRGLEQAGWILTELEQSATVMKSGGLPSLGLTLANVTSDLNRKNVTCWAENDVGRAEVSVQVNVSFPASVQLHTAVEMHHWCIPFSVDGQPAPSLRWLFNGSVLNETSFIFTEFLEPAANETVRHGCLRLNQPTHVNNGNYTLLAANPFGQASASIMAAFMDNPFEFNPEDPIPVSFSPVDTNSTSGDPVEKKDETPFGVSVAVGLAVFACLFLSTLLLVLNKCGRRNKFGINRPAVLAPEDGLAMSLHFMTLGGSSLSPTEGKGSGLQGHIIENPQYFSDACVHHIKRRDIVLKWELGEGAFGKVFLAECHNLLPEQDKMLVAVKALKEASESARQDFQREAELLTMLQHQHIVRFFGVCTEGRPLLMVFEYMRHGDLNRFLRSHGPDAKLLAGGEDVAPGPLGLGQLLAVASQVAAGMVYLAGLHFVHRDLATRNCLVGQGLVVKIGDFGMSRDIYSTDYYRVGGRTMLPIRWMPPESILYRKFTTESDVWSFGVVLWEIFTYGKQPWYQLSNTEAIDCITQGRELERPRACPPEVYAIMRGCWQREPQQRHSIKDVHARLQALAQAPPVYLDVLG
Sequence of BTK (Q06187 whole entry): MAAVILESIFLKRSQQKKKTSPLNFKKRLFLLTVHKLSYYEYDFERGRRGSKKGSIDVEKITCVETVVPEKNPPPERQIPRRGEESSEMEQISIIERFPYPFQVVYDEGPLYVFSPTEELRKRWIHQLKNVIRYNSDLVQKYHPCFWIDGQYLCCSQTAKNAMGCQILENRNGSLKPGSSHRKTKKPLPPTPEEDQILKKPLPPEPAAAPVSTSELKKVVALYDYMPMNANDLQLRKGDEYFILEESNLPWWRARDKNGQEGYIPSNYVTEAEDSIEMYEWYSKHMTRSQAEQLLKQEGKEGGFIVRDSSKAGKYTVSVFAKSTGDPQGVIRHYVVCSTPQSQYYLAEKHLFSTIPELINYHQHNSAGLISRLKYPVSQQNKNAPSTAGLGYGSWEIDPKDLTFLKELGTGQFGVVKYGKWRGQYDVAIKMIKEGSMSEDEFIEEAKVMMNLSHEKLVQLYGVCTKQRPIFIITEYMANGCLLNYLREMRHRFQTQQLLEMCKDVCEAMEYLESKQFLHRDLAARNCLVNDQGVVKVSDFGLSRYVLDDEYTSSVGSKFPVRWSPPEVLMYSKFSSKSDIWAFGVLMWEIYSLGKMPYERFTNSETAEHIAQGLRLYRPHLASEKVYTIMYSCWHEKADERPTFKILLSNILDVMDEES
Sequence of BRK (Q13882 whole entry): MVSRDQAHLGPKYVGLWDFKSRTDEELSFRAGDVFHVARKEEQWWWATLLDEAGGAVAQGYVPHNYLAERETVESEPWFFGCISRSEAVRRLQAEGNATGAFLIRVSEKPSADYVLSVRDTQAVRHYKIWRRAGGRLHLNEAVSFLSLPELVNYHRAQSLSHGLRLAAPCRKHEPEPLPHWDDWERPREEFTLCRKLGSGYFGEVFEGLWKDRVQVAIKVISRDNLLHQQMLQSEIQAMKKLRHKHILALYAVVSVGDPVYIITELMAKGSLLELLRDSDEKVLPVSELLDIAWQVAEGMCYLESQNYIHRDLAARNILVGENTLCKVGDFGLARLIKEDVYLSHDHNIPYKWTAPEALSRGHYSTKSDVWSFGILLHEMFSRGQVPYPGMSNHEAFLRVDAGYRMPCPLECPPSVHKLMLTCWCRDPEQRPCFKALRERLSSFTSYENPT
Sequence of FLT4 (P35916 25-1363): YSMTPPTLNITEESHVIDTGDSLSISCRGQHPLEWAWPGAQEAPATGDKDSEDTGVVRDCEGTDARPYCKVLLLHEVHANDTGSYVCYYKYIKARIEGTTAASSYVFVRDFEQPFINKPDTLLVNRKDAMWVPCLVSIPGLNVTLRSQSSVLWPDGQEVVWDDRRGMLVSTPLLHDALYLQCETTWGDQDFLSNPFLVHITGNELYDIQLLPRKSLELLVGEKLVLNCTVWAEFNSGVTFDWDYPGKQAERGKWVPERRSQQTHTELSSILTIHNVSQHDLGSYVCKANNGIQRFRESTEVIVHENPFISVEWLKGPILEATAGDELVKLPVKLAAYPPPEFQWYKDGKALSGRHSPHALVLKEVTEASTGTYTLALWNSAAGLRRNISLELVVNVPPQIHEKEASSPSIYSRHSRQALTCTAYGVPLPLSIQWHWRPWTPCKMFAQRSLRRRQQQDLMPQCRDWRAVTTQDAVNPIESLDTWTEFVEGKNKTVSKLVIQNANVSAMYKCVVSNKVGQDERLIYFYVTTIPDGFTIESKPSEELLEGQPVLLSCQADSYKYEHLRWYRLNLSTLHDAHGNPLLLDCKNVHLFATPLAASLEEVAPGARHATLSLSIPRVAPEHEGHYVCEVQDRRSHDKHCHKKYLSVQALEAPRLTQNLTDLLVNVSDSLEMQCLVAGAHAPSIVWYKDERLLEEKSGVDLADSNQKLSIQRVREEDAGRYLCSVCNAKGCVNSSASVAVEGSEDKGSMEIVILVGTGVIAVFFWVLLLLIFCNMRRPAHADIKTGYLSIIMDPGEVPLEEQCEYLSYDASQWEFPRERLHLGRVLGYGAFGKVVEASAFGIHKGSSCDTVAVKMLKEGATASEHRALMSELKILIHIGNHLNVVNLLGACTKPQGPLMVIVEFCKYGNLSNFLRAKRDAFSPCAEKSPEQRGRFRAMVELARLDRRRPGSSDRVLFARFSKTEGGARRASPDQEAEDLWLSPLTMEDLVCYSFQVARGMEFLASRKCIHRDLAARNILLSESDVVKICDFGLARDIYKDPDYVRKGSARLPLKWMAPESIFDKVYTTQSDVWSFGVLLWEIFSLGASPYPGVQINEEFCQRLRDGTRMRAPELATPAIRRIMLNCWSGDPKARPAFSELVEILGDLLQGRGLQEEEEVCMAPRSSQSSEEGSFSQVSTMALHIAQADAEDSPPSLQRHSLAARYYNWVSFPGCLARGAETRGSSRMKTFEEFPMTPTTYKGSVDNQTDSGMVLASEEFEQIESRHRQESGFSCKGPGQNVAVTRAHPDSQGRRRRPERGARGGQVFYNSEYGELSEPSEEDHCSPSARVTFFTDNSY

## COc1cc2nccc(Oc3ccc(NC(=O)Nc4cc(C)on4)c(Cl)c3)c2cc1OC [TIVOZANIB, Tivozanib]
ROS1; 1 µM
  Gao et al. % of activity remaining at 1 µM: 24%
ROS1; 10 µM
  Gao et al. % of activity remaining at 10 µM: 16%
MAPKAPK3; 1 µM
  Gao et al. % of activity remaining at 1 µM: 116%
MAPKAPK3; 10 µM
  Gao et al. % of activity remaining at 10 µM: 67%
MAPK13; 1 µM
  Gao et al. % of activity remaining at 1 µM: 114%
MAPK13; 10 µM
  Gao et al. % of activity remaining at 10 µM: 97%
CDC42BPA; 1 µM
  Gao et al. % of activity remaining at 1 µM: 116%
CDC42BPA; 10 µM
  Gao et al. % of activity remaining at 10 µM: 102%
LIMK1; 1 µM
  Gao et al. % of activity remaining at 1 µM: 67%
LIMK1; 10 µM
  Gao et al. % of activity remaining at 10 µM: 14%
SRPK1; 1 µM
  Gao et al. % of activity remaining at 1 µM: 98%
SRPK1; 10 µM
  Gao et al. % of activity remaining at 10 µM: 90%
RPS6KB1 [1]
  IC50: > 12.5 µM
CHK1; 1 µM
  Gao et al. % of activity remaining at 1 µM: 89%
CHK1; 10 µM
  Gao et al. % of activity remaining at 10 µM: 100%
BRK; 1 µM
  Gao et al. % of activity remaining at 1 µM: 2%
BRK; 10 µM
  Gao et al. % of activity remaining at 10 µM: -1%
EEF2K; 1 µM
  Gao et al. % of activity remaining at 1 µM: 84%
EEF2K; 10 µM
  Gao et al. % of activity remaining at 10 µM: 116%
IRAK1; 1 µM
  Gao et al. % of activity remaining at 1 µM: 82%
IRAK1; 10 µM
  Gao et al. % of activity remaining at 10 µM: 92%
JAK2; 1 µM
  Gao et al. % of activity remaining at 1 µM: 114%
JAK2; 10 µM
  Gao et al. % of activity remaining at 10 µM: 114%
RPS6KB1 [2]; 1 µM
  Gao et al. % of activity remaining at 1 µM: 76%
RPS6KB1 [2]; 10 µM
  Gao et al. % of activity remaining at 10 µM: 53%
CHK2; 1 µM
  Gao et al. % of activity remaining at 1 µM: 79%
CHK2; 10 µM
  Gao et al. % of activity remaining at 10 µM: 30%
FLT4; 1 µM
  Gao et al. % of activity remaining at 1 µM: -1%
FLT4; 10 µM
  Gao et al. % of activity remaining at 10 µM: -1%
PLK3; 1 µM
  Gao et al. % of activity remaining at 1 µM: 85%
PLK3; 10 µM
  Gao et al. % of activity remaining at 10 µM: 87%
MAP4K2; 1 µM
  Gao et al. % of activity remaining at 1 µM: 47%
MAP4K2; 10 µM
  Gao et al. % of activity remaining at 10 µM: 17%
CHUK; 1 µM
  Gao et al. % of activity remaining at 1 µM: 91%
CHUK; 10 µM
  Gao et al. % of activity remaining at 10 µM: 114%
FER; 1 µM
  Gao et al. % of activity remaining at 1 µM: 87%
FER; 10 µM
  Gao et al. % of activity remaining at 10 µM: 16%
AKT1; 1 µM
  Gao et al. % of activity remaining at 1 µM: 97%
AKT1; 10 µM
  Gao et al. % of activity remaining at 10 µM: 101%
CDK2; 1 µM
  Gao et al. % of activity remaining at 1 µM: 98%
CDK2; 10 µM
  Gao et al. % of activity remaining at 10 µM: 86%
PKCg; 1 µM
  Gao et al. % of activity remaining at 1 µM: 109%
PKCg; 10 µM
  Gao et al. % of activity remaining at 10 µM: 110%
TRKA; 1 µM
  Gao et al. % of activity remaining at 1 µM: 2%
TRKA; 10 µM
  Gao et al. % of activity remaining at 10 µM: 0%
CDK5/p25; 1 µM
  Gao et al. % of activity remaining at 1 µM: 90%
CDK5/p25; 10 µM
  Gao et al. % of activity remaining at 10 µM: 95%
HIPK2; 1 µM
  Gao et al. % of activity remaining at 1 µM: 94%
HIPK2; 10 µM
  Gao et al. % of activity remaining at 10 µM: 81%
PKCa; 1 µM
  Gao et al. % of activity remaining at 1 µM: 108%
PKCa; 10 µM
  Gao et al. % of activity remaining at 10 µM: 101%
MARK2; 1 µM
  Gao et al. % of activity remaining at 1 µM: 98%
MARK2; 10 µM
  Gao et al. % of activity remaining at 10 µM: 106%
BTK; 1 µM
  Gao et al. % of activity remaining at 1 µM: 50%
BTK; 10 µM
  Gao et al. % of activity remaining at 10 µM: 10%
MINK1; 1 µM
  Gao et al. % of activity remaining at 1 µM: 71%
MINK1; 10 µM
  Gao et al. % of activity remaining at 10 µM: 21%
PKN2; 1 µM
  Gao et al. % of activity remaining at 1 µM: 97%
PKN2; 10 µM
  Gao et al. % of activity remaining at 10 µM: 108%
MKNK2 (MNK2); 1 µM
  Gao et al. % of activity remaining at 1 µM: 105%
MKNK2 (MNK2); 10 µM
  Gao et al. % of activity remaining at 10 µM: 64%
KIT; 1 µM
  Gao et al. % of activity remaining at 1 µM: 3%
KIT; 10 µM
  Gao et al. % of activity remaining at 10 µM: 0%
PLK1
  Gao et al. % of activity remaining at 10 µM: 75%
